Measured values from patent US20230149409A1, “TREATMENT OF HUMAN PAPILLOMAVIRUS-ASSOCIATED CANCERS BY PD-L1 INHIBITORS” (priority 2021, published 2023).

Columns and labels:
[1] = test system: PD-L1 (U2OS/PD-L1 cells, Jurkat-PD-1-SHP cells); assay: Src Homology Region 2 Domain-containing Phosphatase (SHP) assay; assay type: cell-based; conditions: Homo sapiens; U2OS/PD-L1 + Jurkat-PD-1-SHP cells, 2 hours
Procedure: Example 1B. Src Homology Region 2 Domain-containing Phosphatase (SHP) Assay
U2OS/PD-L1 cells (DiscoveRx Corporation) were maintained in McCoy’s 5A medium with addition of 10% FBS, 0.25 µg/mL Puromycin. After removing the culture media, the cell medium was replaced with assay medium (RPMI1640 medium with 1% FBS). The U2OS/PD-L1 cells were then added in 384-well black clear bottom assay plate (CELLCOAT® Tissue Culture Plates, Greiner Bio-One) at 5000 cells per well in 20 uL assay medium. Test compounds were prepared by serial dilution in DMSO and 125 nL compound were first transferred to the 384 REMP plate well (Thermofisher) by ECHO liquid handler (Labcyte) followed with addition of 27.5 uL assay medium. 5 µL/well compounds in the assay medium were transferred to the cell plate with 0.05% DMSO in the final assay at 0.25 µM. Jurkat-PD-1-SHP cells (DiscoveRx Corporation) were cultured in RPMI1640 medium supplemented with 10% FBS, 250 µg/mL Hygromycin B, 500 µg/mL G418. After the replacement of culture media with assay medium, 5,000 Jurkat-PD-1-SHP cells in 20 µL were dispensed into each well. The assay plate was incubated at 37° C., 5% CO2 for 2 hours before 2.5 uL PathHunter reagent 1 (DiscoveRx Corporation) were added to each well. The assay plate was shaken for 1 min at 350 rpm in the dark followed with addition of 10 uL PathHunter reagent 2 (DiscoveRx Corporation). Chemiluminescent signal was recorded with TopCount reader (Perkin Elmer) after incubation at room temperature for 1 hour. Wells with DMSO were served as the positive controls and wells containing no cells were used as negative controls. IC50 determination was performed by fitting the curve of percentage of control activity versus the log of the compound concentration using the GraphPad Prism 6.0 software.

[2] = test system: PD-L1 (PD-L1 aAPC/CHO-K1 cells, Jurkat-PD-1-NFAT effector cells); assay: Nuclear Factor of Activated T-cells (NFAT) assay; assay type: cell-based; conditions: Cricetulus griseus; PD-L1 aAPC/CHO-K1 + Jurkat-PD-1-NFAT cells, 24 hours
Procedure: Nuclear Factor of Activated T-cells (NFAT) Assay
PD-L1 aAPC/CHO-K1cells (Promega) were maintained in F-12 medium with addition of 10% FBS, 200 µg/mL Hygromycin B, 250 µg/mL Geneticin (G418). […] The culture media of PD-L1 aAPC/CHO-K1 cells were first replaced with assay medium (RPMI1640 medium with 1% FBS). The PD-L1 aAPC/CHO-K1cells were then added in a white 384-well white clear bottom assay plate (CELLCOAT® Tissue Culture Plates, Greiner Bio-One) at 8000 per well in 10 uL assay medium. […] 5 uL compounds in the assay medium were transferred to the cells with 0.4% DMSO in the final assay at 2 µM. After removing the culture media, 10,000 Jurkat-PD-1-NFAT effector cells in 5 µL assay medium was dispensed into each well. The assay plate was incubated at 37° C., 5% CO2 for 24 hours. […] After 8 minutes incubation at room temperature, luminescence was read at with Pherastar microplate reader (BMG Labtech). The fold of induction (FOI) was calculated based on the ratio of luminescence normalized to the DMSO wells within each assay plate. The maximum percentage of induction was reported based on the ratio between the highest FOI of each compound and the maximum FOI of control compound within each assay plate. Wells with DMSO were served as the negative controls and wells containing control compound with the highest FOI were used as positive controls. EC50 determination was performed by fitting the curve of percent control activity versus the log of the compound concentration using the GraphPad Prism 6.0 software.

[3] = molecular target: T1, PD-L1 on CD14+ cells in human whole blood (Homo sapiens, UniProt Q9NZQ7); assay: PD-L1 whole blood internalization assay; assay type: cell-based; conditions: 1 ng/mL interferon γ, CD14+ gated, 24 hour
T1 construct: Cells were gated on CD14+ (BD Biosciences) and PD-L1 expression determined by mean fluorescence intensity; host or cells: CD14+ cells in normal human whole blood, stimulated with human interferon gamma
Procedure: PD-L1 Whole Blood Internalization Assay
To determine PD-L1 internalization in human whole blood, normal human blood (Biological Specialty Corp, Colmar. PA) was incubated in the presence or absence of a concentration range of test compounds and 1 ng/mL human interferon γ (R&D Systems Inc. Minn. MN) in a 96 well “2 mL Assay Block” (Corning, Corning NY) for 18-20 hours at 37 °C. Blood was then stained with PD-L1 (MIH1, eBioscience; or BD Biosciences San Jose, CA), CD14 (Life Technologies, Carlsbad, CA) for 30 minutes in the dark at room temperature. Whole Blood/red cells were lysed/fixed (lysis buffer BD Biosciences) for 5 minutes at 37 °C in the dark and then centrifuged at 1600 RPM for 5 minutes. Cells were resuspended in Stain Buffer (BD Bioscience, San Jose, CA) and transferred into 96 well round bottom plates (Coming). Cells were gated on CD14+ (BD Biosciences) and PD-L1 expression determined by mean fluorescence intensity (MFI) (BD LSRFortessa® X-20). IC50 determination was performed by fitting the curve of compound percent inhibition versus the log of the compound concentration using the GraphPad Prism 7.0 software.

[4] = molecular target: T2, PD-⅟PD-L1 (recombinant human PD-L1 protein and human PD-1 protein) (Homo sapiens, UniProt Q9NZQ7); assay: Homogeneous Time-Resolved Fluorescence (HTRF) PD-1/PD-L1 binding assay; conditions: 3 nM PD1, 10 nM PD-L1, 25° C., PBS pH 7.4
T2 construct: Recombinant human PD-L1 protein (19-238) with a His-tag at the C-terminus; purchased AcroBiosystems PD1-H5229 (PD-L1); PD1-H5257 (PD-1)
Procedure: Homogeneous Time-Resolved Fluorescence (HTRF) PD-⅟PD-L1 Binding Assay
The assays were conducted in a standard black 384-well polystyrene plate with a final volume of 20 uL. Inhibitors were first serially diluted in DMSO and then added to the plate wells before the addition of other reaction components. The final concentration of DMSO in the assay was 1%. The assays were carried out at 25° C. in the PBS buffer (pH 7.4) with 0.05% Tween-20 and 0.1% BSA. […] PD-L1 and PD-1 proteins were diluted in the assay buffer and 10 uL was added to the plate well. Plates were centrifuged and proteins were preincubated with inhibitors for 40 minutes. The incubation was followed by the addition of 10 uL of HTRF detection buffer supplemented with Europium cryptate-labeled anti-human IgG (PerkinElmer-AD0212) specific for Fc and anti-His antibody conjugated to SureLight®-Allophycocyanin (APC, PerkinElmer-AD0059H). […] Final concentrations in the assay were - 3 nM PD1, 10 nM PD-L1, 1 nM europium anti-human IgG and 20 nM anti-His-Allophycocyanin. IC50 determination was performed by fitting the curve of percent control activity versus the log of the inhibitor concentration using the GraphPad Prism 5.0 software.

T2 sequence (Q9NZQ7 19-238): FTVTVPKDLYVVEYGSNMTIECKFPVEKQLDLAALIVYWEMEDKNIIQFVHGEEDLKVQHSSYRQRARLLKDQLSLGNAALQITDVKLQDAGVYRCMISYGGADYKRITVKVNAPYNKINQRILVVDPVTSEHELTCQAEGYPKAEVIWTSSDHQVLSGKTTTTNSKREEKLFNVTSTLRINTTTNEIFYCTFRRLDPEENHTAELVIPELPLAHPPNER
T1 sequence (Q9NZQ7 19-290): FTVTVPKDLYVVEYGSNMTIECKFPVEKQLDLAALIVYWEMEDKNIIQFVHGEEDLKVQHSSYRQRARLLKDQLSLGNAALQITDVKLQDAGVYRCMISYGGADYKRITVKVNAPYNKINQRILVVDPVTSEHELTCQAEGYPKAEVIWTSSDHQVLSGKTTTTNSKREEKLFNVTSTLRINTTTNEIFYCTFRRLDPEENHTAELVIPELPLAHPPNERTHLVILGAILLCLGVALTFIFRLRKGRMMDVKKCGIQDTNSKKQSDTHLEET

Compound | IC50 [1] [nM] | EC50 [2] [nM] | IC50 [3] [nM] | IC50 [4] [nM]
Cc1c(Nc2nccc3cc(CN4CC[C@H](O)C4)cnc23)cccc1-c1cccc(-c2nc3cc(CN4CC[C@H](C(=O)O)C4)cc(C#N)c3o2)c1C [Compound 3] | < 10 | < 100 | < 500 | 
Cc1c(Nc2nccc3cc(CN4CC[C@H](O)C4)cnc23)cccc1-c1cccc(-c2nc3cc(CN4CC[C@@H](C(=O)O)C4)cc(C#N)c3o2)c1C [Compound 4, (R)-1-((7-cyano-2-(3′-(3-(((S)-3-hydroxypyrrolidin-1-yl)methyl)-1,7-naphthyridin-8-ylamino)-2,2′-dimethylbiphenyl-3-yl)benzo[d]oxazol-5-yl)methyl)pyrrolidine-3-carboxylic acid] | < 100 | < 100 | < 500 | 
Cc1c(Nc2nccc3cc(CN4CC[C@@H](O)C4)cnc23)cccc1-c1cccc(-c2nc3cc(CN4CC[C@H](C(=O)O)C4)cc(C#N)c3o2)c1C [Compound 5] | < 10 | < 100 | < 500 | 
Cc1c(-c2nc3cc(CN4CCC(C(=O)O)CC4)cc(C#N)c3o2)cccc1-c1cccc(-c2nc3c(s2)CN(C(=O)CN(C)C)C3)c1C [Compound 6, 1-((7-cyano-2-(3′-(5-(2-(dimethylamino)acetyl)-5,6-dihydro-4H-pyrrolo [3,4-d]thiazol-2-yl)-2,2′-dimethylbiphenyl-3-yl)benzo[d]oxazol-5-yl)methyl)piperidine-4-carboxylic acid] | < 10 | < 100 | < 100 | 
Cc1c(Nc2nccc3cc(CN4CC[C@@](C)(O)C4)cnc23)cccc1-c1cccc(NC(=O)c2nc3c(n2C)CCN(C[C@H]2CC[C@@H](C(=O)O)CC2)C3)c1Cl [Compound 11, cis-4-((2-(2-chloro-3′-(3-(((R)-3-hydroay-3-methylpyrrolidin-1-yl)methyl)-1,7-naphthyridin-8-ylamino)-2′-methylbiphenyl-3-ylcarbamoyl)-1-methyl-6,7-dihydro-1H-imidazo[4,5-c]pyridin-5(4H)-yl)methyl)cyclohexanecarboxylic acid] | < 10 | < 100 | < 100 | 
CCN(C)CC(=O)N1Cc2nc(-c3cccc(-c4cccc(Nc5nccc6cc(CN7CC[C@@H](C(=O)O)C7)cnc56)c4Cl)c3C)sc2C1 [Compound 13, (R)-1-((8-((2-chloro-3′-(5-(N-ethyl-N-methylglycyl)-5,6-dihydro-4H-pyrrolo[3,4-d]thiazol-2-yl)-2′-methyl-[1,1′-biphenyl]-3-yl)amino)-1,7-naphthyridin-3-yl)methyl)pyrrolidine-3-carboxylic acid] | < 10 | < 100 | < 100 | 
Cc1c(-c2nc3c(s2)CN(C(=O)CN(C)C)C3)cccc1-c1cccc(-c2nc3c(s2)CN(C(=O)CN2CC[C@@H](O)C2)C3)c1C [Compound 14, (R)-2-(dimethylamino)-1-(2-(3′-(5-(2-(3-hydroaypyrrolidin-1-yl)acetyl)-5,6-dihydro-4H-pyrrolo[3,4-d]thiazol-2-yl)-2,2′-dimethylbipheiryl-3-yl)-4H-pyrrolo [3,4-d]thiazol-5(6H)-yl)ethanone] | < 100 | < 500 |  | 
Cc1c(Nc2nc(C(F)F)nc3cc(CN4CC[C@@H](O)C4)cnc23)cccc1-c1cccc(-c2nc3cc(CN4CC[C@@H](C(=O)O)C4)cc(C#N)c3o2)c1C [Compound 25, (R)-1-((7-cyano-2-(3′-(2-(difluoromethyl)-7-(((R)-3-hydroxypyrrolidin-1-yl)methyl)pyrido[3,2-d]pyrimidin-4-ylamino)-2,2′-dimethylbiphenyl-3-yl)benzo [d]oxazol-5-yl)methyl)pyrrolidine-3-carboxylic acid] |  | < 100 | < 100 | < 10
Cc1c(Nc2nc(C(F)F)nc3cc(CN4CC[C@@H](O)C4)cnc23)cccc1-c1cccc(-c2nc3cc(CN4CC[C@@](C)(C(=O)O)C4)cc(C#N)c3o2)c1C [Compound 26, (R)-1-((7-cyano-2-(3′-(2-(difluoromethyl)-7-(((R)-3-hydroxypyrrolidin-1-yl)methyl)pyrido[3,2-d]pyrimidin-4-ylamino)-2,2′-dimethylbipheiryl-3-yl)benzo[d]oxazol-5-yl)methyl)-3-methylpyrrolidine-3-carboxylic acid] |  | < 100 | < 100 | < 10
Cc1c(Nc2nc(C(F)F)nc3cc(CN4CC[C@@](C)(O)C4)cnc23)cccc1-c1cccc(-c2nc3cc(CN4CCC(C(=O)O)CC4)cc(C#N)c3o2)c1C [Compound 27, (R)-1-((7-cyano-2-(3′-(2-(difluoromethyl)-7-((3-hydroxy-3-methylpyrrolidin-1-yl)methyl)pyrido[3,2-d]pyrimidin-4-ylamino)-2,2′-dimethylbipheiryl-3-yl)benzo[d]oxazol-5-yl)methyl)piperidine-4-caiboxylic acid] |  |  | < 100 | < 10
Cc1c(Nc2nc(C(F)F)nc3cc(CN4CC[C@](C)(O)C4)cnc23)cccc1-c1cccc(-c2nc3cc(CN4CCC(C(=O)O)CC4)cc(C#N)c3o2)c1C [Compound 28, (S)-1-((7-cyano-2-(3′-(2-(difluoromethyl)-7-((3-hydroxy-3-methylpyrrolidin-1-yl)methyl)pyrido[3,2-d]pyrimidin-4-ylamino)-2,2′-dimethylbipheiryl-3-yl)benzo[d]oxazol-5-yl)methyl)pipendine-4-carboxylic acid] |  |  | < 100 | < 10
